“And” between values parts separate entries of the source, which are not always exact repeats. Equal entries are not always repeated.

Data set [1] deals with Plasmodium falciparum. Description: Hit confirmation in dose-response curve in NF54 pLDH assay, at 72h. Type of data set: functional, organism-based, Erythrocyte. Details: timepoint 72 hour.
Data set [2] has as its system Plasmodium falciparum. Description: Hit confirmation in dose-response curve in Dd2 pLDH assay, at 72h. It counts as functional, organism-based, Erythrocyte. Details: timepoint 72 hour.
Data set [3] concerns HepG2. Description: (§1) Re-testing in dose-response curve in HepG2 cytotoxicity assay, at 72h. Details: timepoint 72 hour. It counts as toxicity, cell-based, Homo sapiens. To be noted: hepg2.
The test system of data set [4] is Plasmodium falciparum. The experiment in a line: Hit confirmation in dose-response curve in NF54 nanoGlo assay, at 12h. Type of data set: functional, organism-based, Erythrocyte. Details: timepoint 12 hour.
Data set [5] concerns Plasmodium falciparum. The experiment in a line: Re-testing in dose-response curve in Dd2 pLDH assay, at 72h. It counts as functional, organism-based, Erythrocyte. More on the design: timepoint 72 hour.
Data set [6] concerns Plasmodium falciparum. The experiment in a line: Hit confirmation in dose-response curve in NF54 nanoGlo assay, at 72h. Type of data set: functional, organism-based, Erythrocyte. More on the design: timepoint 72 hour.
The subject of data set [7] is HepG2. The experiment in a line: (§2) Hit confirmation in dose-response curve in HepG2 cytotoxicity assay, at 72h. It counts as toxicity, cell-based, Homo sapiens. More on the design: timepoint 72 hour. To be noted: hepg2.
Data set [8] concerns Plasmodium falciparum. Description: Re-testing in dose-response curve in 3D7 pLDH assay, at 72h. Type of data set: functional, organism-based, Erythrocyte. Details: timepoint 72 hour.
Data set [9] can be described thus: as §1. It counts as toxicity, cell-based, Homo sapiens. More on the design: timepoint 72 hour. To be noted: human, HepG2 cells.
Data set [10] is described as follows: as §2. More on the design: timepoint 72 hour. To be noted: human, HepG2 cells. Type of data set: toxicity, cell-based, Homo sapiens.
Where [11] appears, read: Plasmodium falciparum, Dd2, Erythrocyte, 72 h.
Setting [12] is: Plasmodium falciparum, NF54, Erythrocyte, 72 h.
Setting [13] is: Plasmodium falciparum, NF54, Erythrocyte, 12 h.
Where [14] appears, read: Plasmodium falciparum, 3D7, Erythrocyte, 72 h.

Usually IC50 stands for the concentration that gives 50% inhibition. For `CC(C)c1ccc(-c2nc(CN3CCCCC3)cc(CN3CCCCC3)c2O)cc1`, the IC50 in the data set with Plasmodium falciparum [1] (erythrocyte) is 2690 nM; in the data set with Plasmodium falciparum [2] (erythrocyte), 1580 nM; in the data set on HepG2 [3] it was over 25 µM; in the data set on Plasmodium falciparum [4] (erythrocyte), 3.98 µM; with Plasmodium falciparum [5] (setting [11]) it was 949 nM; with Plasmodium falciparum [5] (erythrocyte), 923 nM. Moreover, the IC50 was 1780 nM in the data set on Plasmodium falciparum [6] (erythrocyte) and over 10 µM in the data set on HepG2 [7].
For the compound `CCOc1cc(C(=O)NC2CCN(CC3CCCC3)CC2)cc(-c2ccccc2)c1OC`, the IC50 was 593 nM [middle of 6 runs] in the data set on Plasmodium falciparum [8] (erythrocyte); 3890 nM in the data set with Plasmodium falciparum [1] (setting [12]); 1580 nM in the data set on Plasmodium falciparum [2] (setting [11]); 10.3 µM in the data set with HepG2 [3]; 3.72 µM in the data set with Plasmodium falciparum [4] (setting [13]); 11500 nM in the data set with Plasmodium falciparum [5] (setting [11]). For the same compound, the IC50 in the data set on Plasmodium falciparum [5] (erythrocyte) is 10700 nM and 8370 nM and 8120 nM; in the data set with Plasmodium falciparum [6] (setting [12]) it was 1480 nM. The IC50 at 72 h in data set [9] was 10 µM; in [10], over 10 µM.
As to `O=C(n1nnc2cc(Cl)c(Cl)cc21)C(F)(F)F`, the IC50 was 254 nM with Plasmodium falciparum [8] (setting [14]); 291 nM in the data set with Plasmodium falciparum [8] (erythrocyte); 4900 nM in the data set on Plasmodium falciparum [1] (setting [12]); 955 nM in the data set with Plasmodium falciparum [2] (setting [11]); 24.8 µM with HepG2 [3]; over 10 µM in the data set on Plasmodium falciparum [4] (setting [13]). Further, the IC50 in the data set on Plasmodium falciparum [5] (setting [11]) is 1050 nM; with Plasmodium falciparum [5] (erythrocyte), 937 nM; with Plasmodium falciparum [6] (setting [12]), over 10000 nM. In addition, the IC50 at 72 h in data set [9] was 21 µM; in data set [10] it was over 10 µM.
Consider `C[C@@H](CNC1CCN(C2CCN(C)CC2)CC1)c1cccc(Cl)c1`, for which the IC50 is 633 nM [middle of 4 runs] with Plasmodium falciparum [8] (erythrocyte); 891 nM in the data set on Plasmodium falciparum [1] (setting [12]); 692 nM in the data set on Plasmodium falciparum [2] (setting [11]); 8.18 µM in the data set on HepG2 [3]; 1.7 µM in the data set with Plasmodium falciparum [4] (setting [13]); 1380 nM in the data set with Plasmodium falciparum [5] (setting [11]). In the data set on Plasmodium falciparum [6] (setting [12]), this compound came in with an IC50 of 724 nM. Further, the values for the IC50 at 72 h in data set [9] and in [10] were 9.55 µM and over 10 µM, respectively.
In the case of `CN(C)C1(CNc2nc(C(F)(F)F)nc3cc(F)ccc23)CCCCCC1`, the IC50 was 460 nM with Plasmodium falciparum [8] (setting [14]); 360 nM in the data set on Plasmodium falciparum [8] (erythrocyte); 724 nM in the data set on Plasmodium falciparum [1] (setting [12]); 1660 nM in the data set with Plasmodium falciparum [2] (setting [11]); 9.28 µM in the data set with HepG2 [3]; over 10 µM with Plasmodium falciparum [4] (setting [13]). Also, the IC50 turned out to be 1740 nM with Plasmodium falciparum [5] (setting [11]), 1760 nM in the data set on Plasmodium falciparum [5] (erythrocyte) and 1020 nM in the data set with Plasmodium falciparum [6] (setting [12]). Moreover, the concentration for half-maximal inhibition (IC50) at 72 h was 8.91 µM in [9] and over 10 µM in data set [10].
On to `CCCc1cccc(CNC2CCN(C3CCN(C)CC3)CC2)c1`, for which the IC50 in the data set with Plasmodium falciparum [8] (erythrocyte) is 620 nM [middle of 4 runs]; in the data set on Plasmodium falciparum [1] (setting [12]), 1550 nM; in the data set with Plasmodium falciparum [2] (setting [11]), 1380 nM; in the data set with HepG2 [3] it was 7.92 µM; with Plasmodium falciparum [4] (setting [13]) it was 4.79 µM; in the data set with Plasmodium falciparum [5] (setting [11]) it was 1370 nM. The IC50 with Plasmodium falciparum [5] (erythrocyte) stood at 1410 nM; in the data set on Plasmodium falciparum [6] (setting [12]) it was 1820 nM. For the same compound, the IC50 at 72 h is 11 µM in [9] and over 10 µM in data set [10].

Source of the values: ChEMBL document CHEMBL5308541, “MAIP: An Open-Source Tool to Enrich High-Throughput Screening Output and Identify Novel, Druglike Molecules with Antimalarial Activity” (ACS Med Chem Lett, 2023).
